Reference: patent US9326539B2, “Compositions comprising dietary fat complexers and methods for their use” (Soho Flordis International Pty. Ltd., priority 2002, dated 2016)

How the values were obtained:
[1] = dog with chronic diarrhea fed α-cyclodextrin with dry food; type: in vivo; settings: 2.5 g α-cyclodextrin with two cups dry food twice a day for two and one-half weeks, α-cyclodextrin:fat about 1:9
Procedure: An eighteen month old, neutered male dog of unknown parentage having chronic diarrhea was de-wormed twice and placed on hypoallergenic food in an effort to control the diarrhea. However, the chronic diarrhea was not alleviated and the dog stopped eating for a day or two on two or three separate occasions.
The dog was then treated with α-cyclodextrin as follows: The dog was placed on a diet comprising a teaspoon (2.5 g) of α-cyclodextrin mixed with two cups dry food twice a day for two and one-half weeks. Based on the fat content in the food, the ratio of α-cyclodextrin to fat was about 1:9. The dog's chronic diarrhea was eliminated during this period except for an acute episode of loose stools after a day of swimming in a river but the stool has been formed ever since.
The dog very quickly lost his appetite, self restricted his food intake by about one-half and began eating grass, grass helps to bind his stool. The diarrhea returned.

insulin and leptin = test: two additional volunteers: body weight, insulin and leptin levels (radioimmune assays); type: in vivo, human
Excerpt: Blood samples were taken from the two additional subjects in Example 3 at various timepoints and assayed for insulin levels and leptin levels by the method of Linco Research (St. Charles, Mo.) using human insulin and leptin radioimmune assays.

[2] = Wistar rat low fat/high fat diet feeding study: food and energy intake, body weight, body composition; type: in vivo, Wistar rats; settings: 6 week study, α-cyclodextrin:fat 1:10 w/w in diet
Excerpt: To examine the effect of α-cyclodextrin on body weight gain and plasma lipid levels in animals fed high fat and low fat diets, we conducted a short-term feeding study using Wistar rats. Forty-two male Wistar rats, 10 weeks old, were obtained from Harlan-Sprague Dawley. Following a one-week adaptation while being fed the control low fat diet (LF), they were divided equally into two groups, one low-fat (LF) diet and the other high-fat (HF) diet. These two groups were further divided into two subgroups. Two groups were fed the LF or HF diet and served as controls for the other two test groups which were fed the LF or HF diet containing α-cyclodextrin, wherein the amount of α-cyclodextrin was such that the ratio of α-cyclodextrin to fat in the food was 1:10 w/w. […]
If this were the case it would be difficult to imagine being able to feed enough of the α-cyclodextrin to an animal in order to complex sufficient triglycerides to make a significant difference in body weight as triglycerides and α-cyclodextrin have similar molecular weights. However, from the data disclosed herein wherein e.g., a diet comprising 4% α-cyclodextrin and 40% fat inhibits weight gain and reduces body fat mass, as the molecular weights are very similar, we have calculated that one α-cyclodextrin molecule can complex approximately nine molecules of triglyceride, the equivalent of 27 free fatty acids. […]

[3] = in vitro study of vegetable oil, water and cyclodextrin: band of wax-like complex; type: physicochemical; settings: vegetable oil 4 g, water 6 g, varying amounts of cyclodextrin (100-2,000 mg), centrifuged
Procedure: FIG. 9A-9C depicts the results of an in vitro study of vegetable oil (4 g), water (6 g) (with added food coloring for contrast) and varying amounts of (A) α-cyclodextrin (100-2,000 mg, right to left), (B) β-cyclodextrin or (C) γ-cyclodextrin. A band of “wax-like” material layered between the oil and aqueous phases is apparent in the tubes. […] Note the increasing size (right to left) of a white layer of un-reacted α-cyclodextrin in the bottom of the tubes. This material is displaced from solution by either the oil or the α-cyclodextrin-oil complex. These tubes were centrifuged in order to improve the definition of the layers. The “wax-like” complex is of such a consistency that all of the tubes except for the furthest two to the right can be inverted without leakage of the aqueous phase around the complex.
FIGS. 9A-9C depict the results of an in vitro study of vegetable oil (4 g), water (6 g) (with added food coloring for contrast) and varying amounts of (A) α-cyclodextrin (100-2,000 mg, right to left), (B) β-cyclodextrin or (C) γ-cyclodextrin. A band of “wax-like” material layered between the oil and aqueous phases is apparent in the tubes. […] Note the increasing size (right to left) of a white layer of un-reacted α-cyclodextrin in the bottom of the tubes. This material is displaced from solution by either the oil or the α-cyclodextrin-oil complex. These tubes were centrifuged in order to improve the definition of the layers. The “wax-like” complex is of such a consistency that all of the tubes in 9A except for the furthest two to the right can be inverted without leakage of the aqueous phase around the complex.
Thus one would not have expected α-cyclodextrin to complex triglyceride molecules because the molecules would not fit within the pore of the α α-cyclodextrin. […] The white substance in the bottom of the tubes is precipitated cyclodextrin.

In the case of `OC[C@H]1O[C@@H]2O[C@H]3[C@H](O)[C@@H](O)[C@@H](O[C@H]4[C@H](O)[C@@H](O)[C@@H](O[C@H]5[C@H](O)[C@@H](O)[C@@H](O[C@H]6[C@H](O)[C@@H](O)[C@@H](O[C@H]7[C@H](O)[C@@H](O)[C@@H](O[C@H]1[C@H](O)[C@H]2O)O[C@@H]7CO)O[C@@H]6CO)O[C@@H]5CO)O[C@@H]4CO)O[C@@H]3CO` [α-cyclodextrin], the chronic diarrhea [1] is reported as “eliminated”, the Leptin (insulin and leptin; Subject 1, 55 days on diet, day 0: 3.6) is reported as 2.9 ng/mL and the Insulin (insulin and leptin; Subject 1, 55 days on diet, day 0: 14) is reported as 13 uU/ml. The Body weight (insulin and leptin; Subject 1, 55 days on diet, day 0: 89.09) was 85.45 kg, the Body weight (insulin and leptin; Subject 1, 55 days on diet, day 0: 196) was 188 lb and the Leptin (insulin and leptin; Subject 1, 112 days on diet, day 0: 3.6) was 1.6 ng/mL. It also gave an Insulin (insulin and leptin; Subject 1, 112 days on diet, day 0: 14) of 8 uU/ml, a Body weight (insulin and leptin; Subject 1, 112 days on diet, day 0: 89.09) of 81.82 kg and a Body weight (insulin and leptin; Subject 1, 112 days on diet, day 0: 196) of 180 lb. For the same compound, the “Body weight % decrease” value (insulin and leptin; Subject 1, day 0 to day 112) was 5.0%, the Insulin % decrease (insulin and leptin; Subject 1, day 0 to day 112) was 42.9% and the Leptin % decrease (insulin and leptin; Subject 1, day 0 to day 112) was 55.6%. It also gave a Leptin (insulin and leptin; Subject 2, 28 days on diet, day 0: 6.1) of 6.0 ng/mL, an Insulin (insulin and leptin; Subject 2, 28 days on diet, day 0: 26) of 28 uU/ml and a Body weight (insulin and leptin; Subject 2, 28 days on diet, day 0: 105.45) of 104.55 kg. For the same compound, the Body weight (insulin and leptin; Subject 2, 28 days on diet, day 0: 232) was 230 lb, the Leptin (insulin and leptin; Subject 2, 62 days on diet, day 0: 6.1) was 3.9 ng/mL and the Insulin (insulin and leptin; Subject 2, 62 days on diet, day 0: 26) was 16 uU/ml. The Body weight (insulin and leptin; Subject 2, 62 days on diet, day 0: 105.45) was 100.23 kg, the Body weight (insulin and leptin; Subject 2, 62 days on diet, day 0: 232) was 220.5 lb and the “Body weight % decrease” value (insulin and leptin; Subject 2, day 0 to day 62) was 5.0%. The Insulin % decrease (insulin and leptin; Subject 2, day 0 to day 62) was 38.5%, the Leptin % decrease (insulin and leptin; Subject 2, day 0 to day 62) was 36% and the “rate of body weight gain” value [2] was “gained weight at a slower rate relative to their respective control groups”. The “band of wax-like material (complexed fat) between oil and aqueous phases” value [3] was “maximum in the tube labeled 10% (400 mg α-cyclodextrin/4 g oil)”.
